The source of these data is patent US20180326022A1, “COMPOSITIONS AND METHODS FOR IMPROVING HEART FUNCTION AND TREATING HEART FAILURE” (The Trustees of the University of Pennsylvania, priority 2017, published 2018).

One assay concerns detyrosinated tubulin. Nature of the assay: Western blotting of cardiomyocyte lysates (TTL, α-, detyr-, tyr-tubulin). The class given is cell-based. As to conditions: rat cardiomyocytes; PTL treatment; shTTL; short term EpoY. As for the experimental part: (§1) Viral constructs were permitted to express for 24-72 hours with Moi=100-200. Parthenolide (Fisher Scientific NC9013142) treatment was carried out at room temperature for 2 hours at 10 μM. All experiments were performed within 48 hours of isolation, except those involving shTTL, which were allowed 72 hours to improve knockdown efficiency.
For analysis of proteins expression levels quantitative Western blots were performed using infrared fluorescence imaging on an Odyssey Imager (LI-COR). Cell homogenates were prepared in ice-cold IGEPAL lysis buffer. After 1 freezing cycle lysates were spun at 18,000×g for 5 min. Aliquots of supernatants were mixed with 4× sample buffer (LI-COR, 928-40004) containing 10% BME, boiled for 6 min., and resolved on sodium dodecyl sulfate (SDS)-polyacrylamide gel electrophoresis Tris-glycine gels (Bio-Rad). Proteins were transferred to a membrane on Mini Trans-Blot Cell (Bio-Rad), blocked 1 h in Odyssey Blocking Buffer (TBS) (LI-COR, 927-50000), and probed with the corresponding primary antibody (see list below) for 2 h at room temperature. Membranes were then rinsed with TBST 4 times for 5 min, and incubated with secondary antibodies (below) for 1.5 h at room temperature. Membranes were rinsed again with TBST and then imaged on Odyssey Imager. Image analysis was performed using Image Studio Lite software (LI-COR). Fluorescent band intensity was always normalized to GAPDH loading control. Analysis of human tissue samples for levels of detyrosinated tubulin was performed blinded to the experimental groups.

The test system of assay [1] is primary adult rat cardiomyocytes. Nature of the assay: Cell contractility (sarcomere shortening, 1 Hz pacing). It is filed as cell-based. As to conditions: for contraction amplitudes and velocities: primary adult rat cardiomyocytes, vinblastine 20 μM 2 hr, nocodazole 1 μM 30 min, costunolide 10 μM 2 hr. As for the experimental part:
as §1
Experiments were performed in custom-fabricated cell chambers (Ionoptix) mounted on an LSM Zeiss 780 inverted confocal microscope using a 40× oil 1.4 NA objective and transmitted light camera (IonOptix MyoCam-S). For contractility assays, cells were maintained in NT solution and electrical field stimulation was provided at 1 Hz with a myopacer (IonOptix MYP100) through platinum electrodes lowered into the bath. Sarcomere length was measured optically by Fourier transform analysis (IonWizard, IonOptix). After 15 s of 1 Hz pacing to achieve steady state, five traces were recorded and analyzed.

The subject of a further assay is rat cardiomyocytes. The experiment in a line: Calcium measurements (Fluo-3 transients). It is filed as cell-based. As to conditions: rat ventricular myocytes; 2 hrs of 10 μM EpoY. The method, then:
Myocytes were loaded with Fluo-3 by 20 min incubation with 1 μM Fluo-3-acetoxymethyl ester (Invitrogen) and 0.01% Pluronic F127 (a poloxamer made by BASF, Florham Park N.J., USA), and allowed an additional 10 min for de-esterification. Cells were scanned using a 488 nm argon ion laser in confocal line-scan mode at 1.92 ms/line. Cells were electrically paced at 1 Hz for 20 s to achieve steady state; the final 5 traces of the pacing protocol were pooled and analyzed for calcium transient properties. The measured fluorescence (F) throughout the transient was normalized to the resting fluorescence prior to stimulation (F0) to normalize for heterogeneity in dye loading.

Assay [2] has as its system human myocytes. Nature of the assay: Nanoindentation stiffness measurements. It is filed as cell-based. Particulars: failing human myocytes; 10 μM, 2 hours. As for the experimental part: (§2) Viable myocytes were concentrated by gravity (5-7 min) and supernatant was aspirated to remove dead cells. Myocytes were resuspended in NT solution containing 1 mM Ca^2+ and concentrated by gravity (5-7 min) again. Cardiomyocytes used acutely were maintained in NT solution for up to 6 hours. Myocytes were treated with 10 μM parthenolide (Fisher Scientific NC9013142 or Sigma P0667) or 10 μM colchicine (Sigma) at room temperature in NT solution for 2 hours. Experiments were performed within 6 hours of isolation, except for those involving viral transduction in cultured cells.
MatTek glass bottom dish was coated 5 μl of 0.5 mg/ml laminin and air dried for 10 min. Culture medium was F-10 (1×) Nutrient Mixture (Ham) [+] L-Glutamine (Life Technologies, 11550-043) supplemented with insulin-transferrin selenium-X (Gibco, 51500-056), 20 mM HEPES, 1 μg/μl primocin (Invivogen, ant-pm-1), 0.4 mM extra CaCl2, 5% FBS, 25 μM cytochalasin D (Cayman, 11330). Viable myocytes were concentrated and a proper amount of medium was added in culture so that neighboring cells were not in direct contact. […]
Mechanical properties at the microscopic scale were measured using nanoindentation (Piuma, Optics11, The Netherlands). […] The Young's moduli were calculated automatically by the software, by fitting the force vs. indentation curve to the Hertz equation. […]

In assay [3] the test system is human myocytes. The experiment in a line: Cell contractility of human myocytes (0.5 Hz). It is filed as cell-based. As for the experimental part: as §2
MatTek glass bottom dish was coated 5 μl of 0.5 mg/ml laminin and air dried for 10 min. Culture medium was F-10 (1×) Nutrient Mixture (Ham) [+] L-Glutamine (Life Technologies, 11550-043) supplemented with insulin-transferrin selenium-X (Gibco, 51500-056), 20 mM HEPES, 1 μg/μl primocin (Invivogen, ant-pm-1), 0.4 mM extra CaCl2, 5% FBS, 25 μM cytochalasin D (Cayman, 11330). Viable myocytes were concentrated and a proper amount of medium was added in culture so that neighboring cells were not in direct contact. Viral constructs were permitted to express for 48 hours with Moi=100-200. Adenoviral TTL-IRES-dsRed and EMTB-3x GFP were transduced in human myocytes as previously performed in rat myocytes. Myocytes were replenished with fresh warm medium without cytochalasin D before calcium and contractility measurements.
Experiments were performed as described in Example 1 with some modification. Contractility is measured in custom-fabricated cell chambers (Ionoptix) mounted on an LSM Zeiss 880 inverted confocal microscope using a 40× oil 1.4 NA objective and transmitted light camera (IonOptix MyoCam-S). Myoyctes were maintained in NT solution (for freshly isolated myocytes) or culture medium (without cytochalasin D, for cultured myocytes) at room temperature and electrical field stimulation was provided at 0.5 Hz with a myopacer (IonOptix MYP100) through platinum electrodes lowered into the bath. Sarcomere length was measured optically by Fourier transform analysis (IonWizard, IonOptix). After 10-30 s of 0.5 Hz pacing to achieve steady state, five traces were recorded and analyzed. If not specified, contractility data was obtained at room temperature.
To test whether the contractile improvement over MT destabilization remains under more physiological conditions, both 0.5 Hz and 1 Hz contractions at 37 C were recorded and analyzed in a small subset of isolated human myocytes (1 NF and 1 failing heart, FIG. 29C).

The test system of assay [4] is human myocytes. The experiment in a line: Calcium measurements in human myocytes. It is filed as cell-based. The method, then:
as §2
Calcium measurements were carried out as described in Example 1 with the following modifications. Myocytes were loaded with 1 μM Fluo-3-acetoxymethyl ester (Invitrogen) and 15% Pluronic F127 (a poloxamer made by BASF, Florham Park, N.J., USA) for 15 minutes. Cells were scanned using a 488-nm argon ion laser in confocal line-scan mode at 0.909 ms/line. Cells were electrically paced at 0.5 Hz at room temperature for 30 s to achieve steady state; five steady-state transients of each myocyte were averaged, pooled in groups and analyzed for calcium transient properties. The measured fluorescence (F) throughout the transient was normalized to the resting fluorescence prior to stimulation (F0) to normalize for heterogeneity in dye loading.

The test system of assay [5] is cardiac and skeletal muscle. As to conditions: 10 μM; refs (13), (8); cited from earlier work.

With `CCOC(=O)C1O[C@@H]1C(=O)N[C@@H](Cc1ccc(O)cc1)C(=O)O` (some centres unmarked) [EpoY], in the assay with detyrosinated tubulin, the “alpha / total tubulin levels (western blot)” value is “without changing” and the “detyrosinated tubulin (western blot)” value was “specifically reduces detyrosination”. Moreover, the “contractility (amplitude of contraction, velocity of contraction and relaxation)” value in assay [1] (rat ventricular myocytes, 2 hrs of 10 μM EpoY) is recorded as “enhanced”. Also, in the assay on rat cardiomyocytes, the “electrically evoked [Ca2+]i transients” value is reported as “not changed”.
Consider `COc1cc2c(c(OC)c1OC)-c1ccc(OC)c(=O)cc1[C@@H](NC(C)=O)CC2` [colchicine, (S)—N-(5,6,7,9-tetrahydro-1,2,3,10-tetramethoxy-9 oxobenzol[a]heptalen-7-yl) acetamide], for which the “viscoelasticity (Emax and EΔ)” value in the assay on human myocytes [2] is recorded as “robustly reduced viscoelasticity”. Besides, the “shortening amplitude and contractile velocities” value with human myocytes [3] (NF human myocytes, 10 μM, 2 hours) is “modest (yet significant) increases”. In addition, the “restoration of lost function (contractile velocities vs NF benchmark)” value in the assay with human myocytes [3] (failing human myocytes) is reported as ~50%. In addition, in the assay on human myocytes [3] (failing human myocytes, 10 μM, 2 hours), the “shortening amplitude and velocity, speed of relaxation” value is “robustly improved”. Further, the “Ca2+ cycling” value in the assay on human myocytes [4] (any group (NF and failing human myocytes)) was “no significant effect”. In the assay with human myocytes [4] (failing human myocytes), the “impaired [Ca2+]i cycling” value is “neither colch nor PTL treatment improved”. The effect on microtubules result in assay [5] is given as “broadly depolymerizes MTs”.
Regarding `C=C1C(=O)O[C@@H]2/C=C(\C)CC/C=C(\C)CC[C@@H]12` [costunolide, (3aS,6E,10E,11aR)-6,10-dimethyl-3-methylidene-3a,4,5,8,9,11a-hexahydrocyclodeca[b]furan-2-one], the “contraction amplitudes and velocities” value in assay [1] is “effective to increase”.
Consider `COC(=O)Nc1nc2ccc(C(=O)c3cccs3)cc2[nH]1` [nocodazole], for which, in assay [1], the “contraction amplitudes and velocities” value is recorded as “effective to increase”.
Take `CC[C@]1(O)C[C@@H]2CN(CCc3c([nH]c4ccccc34)[C@@](C(=O)OC)(c3cc4c(cc3OC)N(C)[C@H]3[C@@](O)(C(=O)OC)[C@H](OC(C)=O)[C@]5(CC)C=CCN6CC[C@]43[C@@H]65)C2)C1` [vinblastine]: in assay [1], the “contraction amplitudes and velocities” value was “effective to increase”.
